In PMC9108603, “Microbial Metabolite Inspired β‐Peptide Polymers Displaying Potent and Selective Antifungal Activity” (Advanced Science, 2022):

What was measured:
Format in all cases: cell-based, Candida albicans
C. albicans (K1 strain) [1] = assay: DNA fragmentation assay (TUNEL); settings: 50 μg/mL PDAP20, 8 h, 3.0 × 10^6 CFU/mL; late stage of apoptosis
Method: NAC concentration without affecting the normal cell growth. Wells containing cells in RPMI and 40 mM H 2O2 was used as positive controls. Cell suspension of C. albicans (K1 strain) at 6.0 × 10^6 CFU/mL was treated with 20 μM 2,7-dichlorodi-hydrofluorescein diacetate (DCFHDA) for 20 min. Then 50 µL of the cell suspension was added to each well, except the blank control (RMPI containing DCFHDA without cells). The fluorescence intensity of the induced ROS production was measured every 30 min using a plate reader at λ ex = 485 nm and λem = 530 nm. […]
Detection of mitochondrial membrane potential. Changes in mitochondrial membrane potential in C. albicans after incubation with PDAP 20 were analyzed using JC-1 as previously described. Mitochondrial membrane potential was detected with the fluorescent dye JC-1, which exists as aggregates (red) in normal cells with polarized mitochondria, whereas exists as monomers (green) in apoptotic cells with depolarized mitochondria. […]
(§1) DNA fragmentation assay. Apoptosis induced DNA fragments in C. albicans cells were analyzed using the TdT-mediated dUTP Nick-End Labeling (TUNEL) method. […]
fresh non-treated cell suspension was used as a control. The bright field and FITC fluorescence were collected under 100× oil immersion lenses, with representative areas in the images electronically amplified sixfold. […]

C. albicans K1 strain = assay: Kill kinetics assay; settings: 2 × MFC, C. albicans K1, RPMI 1640, 30 °C, CFU on YPD agar, duplicates
Method: Kill kinetics assay. A culture of C. albicans K1 strain was collected at 2.5 × 10^3 CFU/mL or 6.0 × 10^6 CFU/mL in RPMI 1640 medium to give the working suspension. […]
solution was added to 0.5 mL of the above fungal suspension in each well of a 24-well plate to achieve 2 × MFC of polymer concentration. The fungal suspensions were incubated at 30 °C. At desired time points, each suspension was homogeneously mixed and 30 µL of each

C. albicans (K1 strain) [2] = assay: Intracellular ROS detection (DCFH fluorescence); settings: DCF fluorescence, positive control 40 mM H2O2; rises with time and PDAP20 concentration
Method: Energy depletion analysis. For energy depletion experiments, cell suspension of C. albicans (K1 strain) at 3.0 × 10^6 CFU/mL was pretreated with RPMI containing 5 mM NaN 3 for 1 h. For antifungal efficiency assay, a fresh cell suspension pretreated or non-pretreated with NaN 3 were incubated with 50 μg/mL PDAP 20 or without an antifungal agent (as energy depletion control) for 24 h. The fresh cell suspension without antifungal agents before and after incubation with NaN 3 for 24 h were used as the controls, respectively. The suspensions were diluted and plated on YPD agar. The plates were incubated at 30 °C for 24 h and colony amounts were counted. The cell viability after incubation at 4 °C with 50 μg/mL PDAP 20 or without an antifungal agent (as positive control) was measured using the same method. […]
For flow cytometry experiment, a fresh cell suspension pretreated or non-pretreated with NaN 3 was incubated with 50 μg/mL CPM-PDAP 20 for 1 h and 2 h, respectively. Fungal cells were washed by PBS to remove polymers, and 5.0 × 10^4 cells were counted and anaysized. The polymer uptake was calculated by flow cytometry (Backman). Furthermore, cell suspensions were incubated with 10 μg/mL PI for 10 min for calculated PI uptake. […]
as §1

poly(DL‐diaminopropionic acid) [PDAP20]
DNA fragmentation, TUNEL (C. albicans (K1 strain) [1]): strong green cytosol fluorescence
Time to completely kill the fungi (time‐kill kinetics) (C. albicans K1 strain): several hours
Intracellular ROS level (C. albicans (K1 strain) [2]): higher than that of the hydrogen peroxide‐treated fungal cells
